# In ChEMBL document CHEMBL1201862, “PubChem BioAssay data set” (2004):
# Active and inactive are the calls of the source. For most assays here, no stated cut-off is given here; in the data, actives have a measured EC50 and inactives only a lower limit.
# Legend:
# [1] = molecular target: T1, Ubiquitin-conjugating enzyme E2 N (Homo sapiens, UniProt P61088); assay type: functional;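 further: Dose-response confirmation in a TR-FRET assay detecting UBC13-driven polyubiquitin chain formation, inhibition measured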
# T1 sequence (P61088 whole entry): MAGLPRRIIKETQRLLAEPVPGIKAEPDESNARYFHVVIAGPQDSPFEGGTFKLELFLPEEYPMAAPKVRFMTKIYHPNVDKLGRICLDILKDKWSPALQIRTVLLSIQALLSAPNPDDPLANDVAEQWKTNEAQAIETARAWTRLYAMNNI
# [2] = molecular target: NACHT, LRR and PYD domains-containing protein 1 (Homo sapiens, UniProt Q9C000); assay: NALP1 inhibitors in yeast, dose response, luminescent (AID 488860); assay type: functional
# Sequence of NACHT, LRR and PYD domains-containing protein 1 (Q9C000 1-1212 limits assumed): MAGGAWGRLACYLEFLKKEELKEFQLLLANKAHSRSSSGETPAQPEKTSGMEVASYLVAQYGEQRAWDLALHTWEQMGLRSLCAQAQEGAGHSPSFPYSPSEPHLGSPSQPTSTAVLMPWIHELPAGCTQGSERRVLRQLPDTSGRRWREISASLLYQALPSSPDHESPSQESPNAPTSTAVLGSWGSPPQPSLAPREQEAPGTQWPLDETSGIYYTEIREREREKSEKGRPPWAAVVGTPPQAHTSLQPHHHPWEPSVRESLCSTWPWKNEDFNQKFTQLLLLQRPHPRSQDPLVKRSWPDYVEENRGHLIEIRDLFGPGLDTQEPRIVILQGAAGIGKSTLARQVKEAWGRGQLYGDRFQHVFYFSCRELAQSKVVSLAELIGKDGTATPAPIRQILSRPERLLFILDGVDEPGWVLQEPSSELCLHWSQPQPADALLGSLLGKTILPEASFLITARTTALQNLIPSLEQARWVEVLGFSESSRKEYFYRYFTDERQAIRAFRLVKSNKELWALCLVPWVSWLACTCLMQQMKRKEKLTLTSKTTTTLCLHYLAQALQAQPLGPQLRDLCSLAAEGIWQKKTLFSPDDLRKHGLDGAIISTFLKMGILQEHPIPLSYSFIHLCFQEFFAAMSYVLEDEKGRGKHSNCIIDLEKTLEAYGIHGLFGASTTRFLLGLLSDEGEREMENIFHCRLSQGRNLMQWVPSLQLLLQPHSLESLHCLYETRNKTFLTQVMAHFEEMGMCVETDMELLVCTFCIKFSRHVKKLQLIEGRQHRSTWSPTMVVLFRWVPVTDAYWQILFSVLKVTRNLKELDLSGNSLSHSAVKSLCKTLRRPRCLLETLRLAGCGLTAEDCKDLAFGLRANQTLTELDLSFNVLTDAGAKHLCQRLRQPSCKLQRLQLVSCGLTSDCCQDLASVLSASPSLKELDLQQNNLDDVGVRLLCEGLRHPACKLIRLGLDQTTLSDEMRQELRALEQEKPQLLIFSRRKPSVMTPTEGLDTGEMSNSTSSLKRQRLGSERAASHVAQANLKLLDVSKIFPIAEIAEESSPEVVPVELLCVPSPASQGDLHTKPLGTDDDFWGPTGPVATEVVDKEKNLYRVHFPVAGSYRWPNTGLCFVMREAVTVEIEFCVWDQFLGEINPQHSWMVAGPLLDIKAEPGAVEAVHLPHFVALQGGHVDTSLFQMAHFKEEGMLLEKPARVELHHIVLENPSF
# Sequence of NACHT, LRR and PYD domains-containing protein 1 (Q9C000 1213-1473 limits assumed): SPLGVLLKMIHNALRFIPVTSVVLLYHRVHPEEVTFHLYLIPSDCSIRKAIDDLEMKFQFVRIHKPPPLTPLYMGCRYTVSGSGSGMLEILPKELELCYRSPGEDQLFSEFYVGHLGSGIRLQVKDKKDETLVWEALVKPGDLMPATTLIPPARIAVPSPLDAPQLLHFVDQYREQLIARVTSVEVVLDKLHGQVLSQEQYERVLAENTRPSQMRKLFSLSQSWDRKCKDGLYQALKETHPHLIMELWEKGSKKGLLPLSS
# [3] = test system: Saccharomyces cerevisiae; assay: S. cerevisiae Caspase-1/ASC signal blockers IC50, NALP1 inhibitor project selectivity test (AID 488863); assay type: functional, organism-based
# [4] = alpha-synuclein stem-loop translation blockers – luminescence, H4 neuroglioblastoma cells, dose confirmation, confirmation (AID 2454); assay type: functional, cell-based;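 further: H4 neuroglioblastoma cells carrying an alpha-synuclein 5'UTR luciferase reporter; potency for inhibition of the luciferase signal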
# [5] = luciferase reporter signal suppression in cells – H4 neuroglioma cells, luminescence, dose response (AID 1990); assay type: functional, cell-based
# [6] = DRD fibroblast viability loss – cell-based, non-viral oncogenic, luminescence, dose response (AID 1934); assay type: functional; conditions: Homo sapiens
# [7] = luciferase reporter signal reduction – luminescence, H4-C neuroglioblastoma cells, dose response (AID 2458); assay type: functional, cell-based;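 further: H4 neuroglioblastoma cells stably carrying a luciferase reporter gene fusion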
# [8] = alpha-synuclein stem-loop luciferase translation blockers – H4 neuroglioma cells, luminescence, confirmation (AID 1988); assay type: functional, cell-based
# [9] = Luminescence Cell-Based Dose Response HTS to Identify Inhibitors of 5'UTR Stem-Loop Driven Prion Protein mRNA Translation in H4 Neuroglioblastoma Cells. [Related pubchem assays: 1827 (Project Summary), 1813 (Primary HTS)]; assay type: functional
# [10] = test system: BJ; assay: BJ-TERT fibroblast viability loss – cell-based, RAS-independent, luminescence, dose response (AID 1933); assay type: functional; conditions: Homo sapiens
# [11] = test system: BJ; assay: BJ-TERT-LT-ST fibroblast viability loss – cell-based, RAS-independent, luminescence, dose response (AID 1935); assay type: functional; conditions: Homo sapiens;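 further: BJ fibroblasts immortalized with TERT plus LT and ST oncogenes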
# [12] = test system: BJ; assay: cells; assay type: functional, cell-based; conditions: Homo sapiens
# [13] = cells; assay type: functional, cell-based
# [14] = test system: J774.A1; assay: Confirmation of image-based Screening Assay for Inhibitors of Phagocytosis. [Related pubchem assays (depositor defined):AID1029, AID1643]; assay type: functional, cell-based; conditions: Mus musculus
# [15] = molecular target: Nonstructural protein 1 (Influenza A virus, UniProt Q194T2); assay type: functional, Influenza A virus (A/California/07/2009(H1N1))
# Sequence of Nonstructural protein 1 (Q194T2 whole entry): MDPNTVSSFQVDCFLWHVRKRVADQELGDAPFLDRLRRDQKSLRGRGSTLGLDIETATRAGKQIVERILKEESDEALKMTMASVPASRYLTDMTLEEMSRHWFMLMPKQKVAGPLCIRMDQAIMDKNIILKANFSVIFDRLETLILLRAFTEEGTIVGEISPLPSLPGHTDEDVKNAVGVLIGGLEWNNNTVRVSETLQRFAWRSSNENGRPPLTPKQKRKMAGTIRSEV
# [16] = molecular target: Protein Rev (Human immunodeficiency virus type 1 group M subtype B (isolate HXB2)(HIV-1), UniProt P04618); assay: blockers of HIV Rev/RRE RNA complex – biochemical, fluorescence polarization, HIV-1, dose response (AID 434976); parameters: species or system Human immunodeficiency virus 1
# Sequence of Protein Rev (P04618 whole entry): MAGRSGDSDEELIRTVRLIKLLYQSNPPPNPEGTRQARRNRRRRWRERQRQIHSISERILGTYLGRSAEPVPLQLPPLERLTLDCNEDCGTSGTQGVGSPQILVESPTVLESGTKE
# [17] = molecular target: Female germline-specific tumor suppressor gld-1 (Caenorhabditis elegans, UniProt Q17339); assay: blockers of GLD-1/TGE RNA complex formation – biochemical, fluorescence polarization, C. elegans, dose response (AID 2802);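 further: fluorescence polarization of labeled TGE RNA bound by purified gld-1 protein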
# Sequence of Female germline-specific tumor suppressor gld-1 (Q17339 whole entry): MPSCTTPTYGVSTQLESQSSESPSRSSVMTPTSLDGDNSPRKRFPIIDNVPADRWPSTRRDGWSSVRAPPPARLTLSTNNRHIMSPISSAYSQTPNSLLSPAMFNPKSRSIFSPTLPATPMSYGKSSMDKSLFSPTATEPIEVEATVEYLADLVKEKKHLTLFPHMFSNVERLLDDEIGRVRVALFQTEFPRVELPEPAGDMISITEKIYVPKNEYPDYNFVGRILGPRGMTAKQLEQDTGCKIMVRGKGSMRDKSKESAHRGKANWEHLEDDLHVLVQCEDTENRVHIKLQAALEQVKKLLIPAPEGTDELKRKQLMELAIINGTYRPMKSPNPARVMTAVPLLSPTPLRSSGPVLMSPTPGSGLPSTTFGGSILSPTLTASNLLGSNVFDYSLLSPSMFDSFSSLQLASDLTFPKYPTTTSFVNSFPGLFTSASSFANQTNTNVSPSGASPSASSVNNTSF
# [18] = molecular target: T2, Short transient receptor potential channel 4 (Mus musculus, UniProt Q9QUQ5); assay: calcium entry via TRPC4 opening agents – cell-based, HEK293 TRPC4/mu-opioid, Fluo-4 calcium, dose response (AID 434937); assay type: functional
# T2 sequence (Q9QUQ5 whole entry): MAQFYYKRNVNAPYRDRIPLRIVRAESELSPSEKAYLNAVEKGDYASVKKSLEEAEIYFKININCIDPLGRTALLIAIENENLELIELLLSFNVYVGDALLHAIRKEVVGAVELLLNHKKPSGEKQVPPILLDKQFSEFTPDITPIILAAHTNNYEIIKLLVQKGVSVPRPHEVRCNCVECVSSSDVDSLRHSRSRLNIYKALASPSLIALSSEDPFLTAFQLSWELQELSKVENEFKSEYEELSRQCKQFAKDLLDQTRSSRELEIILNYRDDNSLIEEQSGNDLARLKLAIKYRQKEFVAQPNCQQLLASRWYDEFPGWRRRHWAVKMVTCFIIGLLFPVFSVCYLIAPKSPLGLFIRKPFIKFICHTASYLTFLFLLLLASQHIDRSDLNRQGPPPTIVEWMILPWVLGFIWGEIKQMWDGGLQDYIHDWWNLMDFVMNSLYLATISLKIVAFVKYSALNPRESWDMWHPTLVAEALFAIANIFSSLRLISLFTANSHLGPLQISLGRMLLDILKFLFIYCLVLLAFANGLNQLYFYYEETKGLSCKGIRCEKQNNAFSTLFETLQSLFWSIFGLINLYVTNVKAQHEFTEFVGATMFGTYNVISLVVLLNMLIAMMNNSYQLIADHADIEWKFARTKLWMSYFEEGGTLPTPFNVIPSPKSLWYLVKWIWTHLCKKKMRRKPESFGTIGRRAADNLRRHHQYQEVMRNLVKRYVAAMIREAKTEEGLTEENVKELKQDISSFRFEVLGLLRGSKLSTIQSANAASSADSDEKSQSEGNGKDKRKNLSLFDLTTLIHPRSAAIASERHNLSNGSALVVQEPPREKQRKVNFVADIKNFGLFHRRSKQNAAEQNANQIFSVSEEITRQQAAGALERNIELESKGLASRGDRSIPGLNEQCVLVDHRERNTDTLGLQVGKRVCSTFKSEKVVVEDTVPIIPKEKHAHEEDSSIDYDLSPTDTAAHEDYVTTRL
structure (smiles),measurement,setting,value
Cc1ccc2nc(N(CCCN(C)C)C(=O)c3sc4ccccc4c3Cl)sc2c1,IC50,[1],> 20000 nM (inactive)
same,IC50,[2],16900 nM (active)
same,IC50,[3],6520 nM (active)
COC(=O)Nc1nc(-c2ccccc2)c(C(=O)c2ccccc2)s1,EC50,[4],1360 nM (active)
same,EC50,[5],1730 nM (active)
same,EC50,[6],1040 nM (active)
same,EC50,[7],1040 nM (active)
same,EC50,[8],< 100 nM (active)
same,EC50,[9],< 100 nM (active)
same,EC50,[10],676 nM (active)
same,EC50,[11],479 nM (active)
same,EC50,[12],1560 nM (active)
same,EC50,[13],1190 nM (active)
same,IC50,[14],> 25000 nM (inactive)
Cc1ccc(N2CCN(c3ccc(NCc4nc5ccccc5n4C)cc3)CC2)cc1,IC50,[15],75600 nM (active)
same,IC50,[16],19600 nM (not active)
same,IC50,[17],> 2210 nM (active)
same,EC50,[18],1060 nM (active)
